Assay results as given in US5118392A, “Separation of trichloroethylene from a butyl alcohol by extractive distillation” (priority 1991, dated 1992).
Where two headings read alike, the source gives them in different places.

How the values were obtained:
[1] = Vapor-liquid equilibrium still, trichloroethylene-2-butanol azeotrope with extractive distillation agent; assay type: physicochemical
Excerpt: (§1) The data in Tables 2, 3, 5, 7, 8, 10 and 11 was obtained in a vapor-liquid equilibrium still. In every case, the starting mixture was the trichloroethylene-butanol azeotrope. The relative volatilities are listed for each of the agents.
Seventy grams of the trichloroethylene-2-butanol azeotrope and 30 grams of 2-methyl-1-pentanol were charged to the vapor-liquid equilibrium still and refluxed for two hours.

[2] = Glass perforated plate rectification column (7.3 theoretical plates), trichloroethylene / 2-butanol; assay type: physicochemical
Excerpt: The overhead analysis was 98.2% trichloroethylene, 1.8% 2-butanol and the bottoms analysis was 65.6% trichloroethylene, 34.4% 2-butanol. This gives an average relative volatility of 1.59 for each theoretical plate.

[3] = Vapor-liquid equilibrium still, trichloroethylene-isobutanol azeotrope with extractive distillation agent; assay type: physicochemical
Excerpt: as §1
Seventy grams of the trichloroethylene-isobutanol azeotrope and 30 grams of n-octanol were charged to the vapor-liquid equilibrium still and refluxed for five hours.

[4] = Vapor-liquid equilibrium still, trichloroethylene-n-butanol azeotrope with extractive distillation agent; assay type: physicochemical
[5] = Glass perforated plate rectification column (7.3 theoretical plates), trichloroethylene / n-butanol; assay type: physicochemical; details: 2 hrs
Excerpt: Dimethylsulfoxide gave a relative volatility of 1.28 after two hours of operation.
A solution comprising 300 grams of trichloroethylene and 15 grams of n-butanol was placed in the stillpot of a 7.3 theoretical plate glass perforated plate rectification column. […] After two hours operation, overhead and bottoms samples were collected and analysed. The overhead analysis was 98.2% trichloroethylene, 1.8% n-butanol and the bottoms analysis was 90.1% trichloroethylene, 9.9% n-butanol. This gives an average relative volatility of 1.28 for each theoretical plate.

[6] = as above; assay type: physicochemical; details: 1 hr
[7] = Description: A solution comprising 170 grams of trichloroethylene and 30 grams of t-butanol was placed in the stillpot of the 7.3 theoretical plate glass perforated plate rectification column. When refluxing began, an extractive agent comprising n-butyl acetate was pumped into the column at a rate of 15 ml/min. The temperature of the extractive agent as it entered the column was 85° C. After establishing the feed rate of the extractive agent, the heat input to the trichloroethylene-t-butanol in the stillpot was adjusted to give a total reflux rate of 40 ml/min. After two hours of operation, the overhead and bottoms samples were collected and analysed.
[8] = Vapor-liquid equilibrium still, t-butanol-trichloroethylene azeotrope with extractive distillation agent; assay type: physicochemical
Excerpt: as §1
Seventy grams of the t-butanol-trichloroethylene azeotrope and 30 grams of n-butyl acetate were charged to the vapor-liquid equilibrium still and refluxed for fourteen hours.

[9] = Glass perforated plate rectification column (7.3 theoretical plates), trichloroethylene / isobutanol; assay type: physicochemical
Excerpt: The overhead analysis was 97.7% trichloroethylene, 2.3% isobutanol and the bottoms analysis was 84.8% trichloroethylene, 15.2% isobutanol. This gives an average relative volatility of 1.31 for each theoretical plate.

[10] = trichloroethylene from 2-butanol, Table 7
[11] = trichloroethylene from isobutanol, Table 5
[12] = trichloroethylene from n-butanol, Table 2
[13] = Example 1, refluxed seven hours
[14] = bottoms, 2 hrs, listed as n-butyl acetate
[15] = overhead, 2 hrs, listed as n-butyl acetate
[16] = Example 7, refluxed fourteen hours

## CCCCCCCCO [1-Octanol]
[1]; [10]
  Relative Volatility: 1.5

## CCC(CC)CO [2-Ethyl butanol]
[1]; [10]
  Relative Volatility: 1.85

## CCCCC(CC)CO (centres unmarked) [2-Ethyl-1-hexanol]
[1]; [10]
  Relative Volatility: 1.55

## CCCC(C)CO (centres unmarked) [2-Methyl-1-pentanol]
[1]; Example 5, refluxed two hours
  liquid composition, 2-butanol: 19.5%
  liquid composition, trichloroethylene: 80.5%
  vapor composition, 2-butanol: 11.9%
  vapor composition, trichloroethylene: 88.1%
[1]; Example 5: 70 g azeotrope, 30 g agent, refluxed two hours
  Relative Volatility: 1.75
[1]; [10]
  Relative Volatility: 1.6
[2]; 1 hr
  Relative Volatility (per theoretical plate): 1.49
[2]; 2 hrs
  Relative Volatility (average, per theoretical plate): 1.59
[2]; bottoms, 1 hr
  Weight % 2-Butanol: 30.7%
  Weight % C2 H Cl3: 69.3%
[2]; bottoms, 2 hrs
  Weight % 2-Butanol: 34.4%
  Weight % C2 H Cl3: 65.6%
[2]; overhead, 1 hr
  Weight % 2-Butanol: 2.4%
  Weight % C2 H Cl3: 97.6%
[2]; overhead, 2 hrs
  Weight % 2-Butanol: 1.8%
  Weight % C2 H Cl3: 98.2%
[3]; [11]
  Relative Volatility: 2.2

## CCCCCCC(C)O (centres unmarked) [2-Octanol]
[3]; [11]
  Relative Volatility: 2.7

## CCC(C)(O)CC [3-Methyl-3-pentanol]
[1]; [10]
  Relative Volatility: 1.35

## OCCCc1ccccc1 [3-Phenyl-1-propanol]
[1]; [10]
  Relative Volatility: 1.65

## CC(C)CC(C)O (centres unmarked) [4-Methyl-2-pentanol]
[3]; [11]
  Relative Volatility: 2.7

## OCc1ccccc1 [Benzyl alcohol]
[4]; [12]
  Relative Volatility: 3.5
[3]; [11]
  Relative Volatility: 2.0

## OC1CCCCC1 [Cyclohexanol]
[4]
  Relative Volatility: 3.5
[3]; [11]
  Relative Volatility: 2.4

## CC(=O)CC(C)(C)O [Diacetone alcohol]
[1]; [10]
  Relative Volatility: 1.45
[3]; [11]
  Relative Volatility: 1.3

## CC(C)CC(O)CC(C)C [Diisobutyl carbinol]
[1]; [10]
  Relative Volatility: 1.35
[4]; [12]
  Relative Volatility: 1.4
[3]; [11]
  Relative Volatility: 1.6

## C[S+](C)[O-] [Dimethylsulfoxide]
[5]
  Relative Volatility (average, per theoretical plate): 1.28
[5]; bottoms
  Weight % C2 H Cl3: 90.1%
  Weight % n-Butanol: 9.9%
[5]; overhead
  Weight % C2 H Cl3: 98.2%
  Weight % n-Butanol: 1.8%
[4]; [13]
  liquid composition, n-butanol: 2.9%
  liquid composition, trichloroethylene: 97.1%
  vapor composition, n-butanol: 2.3%
  vapor composition, trichloroethylene: 97.7%
[4]; Example 1: 60 g azeotrope, 30 g agent, refluxed seven hours
  Relative Volatility: 1.25
[4]; [12]
  Relative Volatility: 1.3
[6]
  Relative Volatility (per theoretical plate): 1.22
[6]; bottoms
  Weight % C2 H Cl3: 88.2%
  Weight % n-Butanol: 11.8%
[6]; overhead
  Weight % C2 H Cl3: 96.9%
  Weight % n-Butanol: 3.1%

## CCCCCCCO [Heptyl alcohol]
[1]; [10]
  Relative Volatility: 1.55
[3]; [11]
  Relative Volatility: 1.95

## CCCCCCO [Hexyl alcohol]
[1]; [10]
  Relative Volatility: 2.6

## CC(C)CCO [Isoamyl alcohol]
[3]; [11]
  Relative Volatility: 1.9

## CC(C)CCCO [Isohexyl alcohol]
[3]; [11]
  Relative Volatility: 2.6

## CC(C)CCCCCCO [Isononyl alcohol]
[1]; [10]
  Relative Volatility: 1.35

## CC(C)CCCCCO [Isooctanol]
[3]; [11]
  Relative Volatility: 1.6

## CC(C)CCCCCO [Isooctyl alcohol]
[1]; [10]
  Relative Volatility: 1.7

## CC1=CC(=O)CC(C)(C)C1 [Isophorone]
[4]; [12]
  Relative Volatility: 1.45
[3]; [11]
  Relative Volatility: 1.6

## CCCCCCCCCO [Nonyl alcohol]
[3]; [11]
  Relative Volatility: 3.8

## OCCc1ccccc1 [Phenethyl alcohol]
[4]; [12]
  Relative Volatility: 2.5
[3]; [11]
  Relative Volatility: 1.55

## OCC1CCCO1 (centres unmarked) [Tetrahydrofurfuryl alcohol]
[1]; [10]
  Relative Volatility: 1.65
[4]
  Relative Volatility: 2.2
[3]; [11]
  Relative Volatility: 2.4

## CCCCOC(C)=O [n-Butyl acetate]
[7]; 1 hr
  Relative Volatility (per theoretical plate): 1.63
[7]; 2 hrs
  Relative Volatility (average, t-butanol to trichloroethylene, per theoretical plate): 2.15
[7]; bottoms, 1 hr
  Weight % C2 H Cl3: 6.1%
  Weight % t-Butanol: 93.9%
[7]; bottoms, 2 hrs
  Weight % C2 H Cl3: 4.1%
  Weight % t-Butanol: 95.9%
[7]; [14]
  Weight % C2 H Cl3: 95.9%
  Weight % t-Butanol: 4.1%
[7]; overhead, 1 hr
  Weight % C2 H Cl3: 70.3%
  Weight % t-Butanol: 29.7%
[7]; overhead, 2 hrs
  Weight % C2 H Cl3: 92.2%
  Weight % t-Butanol: 7.8%
[7]; [15]
  Weight % C2 H Cl3: 7.8%
  Weight % t-Butanol: 92.2%
[8]; [16]
  liquid composition, t-butanol: 31.7%
  liquid composition, trichloroethylene: 68.3%
  vapor composition, t-butanol: 55.5%
  vapor composition, trichloroethylene: 44.5%
[8]; Example 7: 70 g azeotrope, 30 g agent, refluxed fourteen hours
  relative volatility of t-butanol to trichloroethylene: 1.7
[8]; trichloroethylene from t-butanol, Table 10
  Relative Volatility: 1.7

## CCCCCCCCCCO [n-Decanol]
[4]; [12]
  Relative Volatility: 2.4
[3]; [11]
  Relative Volatility: 3.9

## CCCCCCCCO [n-Octanol]
[4]; [12]
  Relative Volatility: 2.3
[3]; Example 3, refluxed five hours
  liquid composition, isobutanol: 6.1%
  liquid composition, trichloroethylene: 93.9%
  vapor composition, isobutanol: 4.6%
  vapor composition, trichloroethylene: 95.4%
[3]; Example 3: 70 g azeotrope, 30 g agent, refluxed five hours
  Relative Volatility: 1.3
[3]; [11]
  Relative Volatility: 1.3
[9]; 1 hr
  Relative Volatility (per theoretical plate): 1.275
[9]; 2 hrs
  Relative Volatility (average, per theoretical plate): 1.31
[9]; bottoms, 1 hr
  Weight % C2 H Cl3: 84.0%
  Weight % Isobutanol: 16.0%
[9]; bottoms, 2 hrs
  Weight % C2 H Cl3: 84.8%
  Weight % Isobutanol: 15.2%
[9]; overhead, 1 hr
  Weight % C2 H Cl3: 96.9%
  Weight % Isobutanol: 3.1%
[9]; overhead, 2 hrs
  Weight % C2 H Cl3: 97.7%
  Weight % Isobutanol: 2.3%
